Results reported in patent US8841087B2 (priority 2008, dated 2014).

Test system: clinical strains of Mycobacterium tuberculosis
Assay: Reference phenotypic test of antibiotic sensitivity in solid medium
Assay type: cell-based
Conditions: six clinical strains

Question: `CC[C@@H](CO)NCCN[C@@H](CC)CO` [ethambutol] was tested. Which “sensitivity at critical concentration” value (ethambutol, 5 μg/ml) did it give?
Answer: sensitive

Question: For `[H]/N=C(/N)N[C@H]1[C@H](O)[C@@H](O)[C@H](O[C@@H]2O[C@@H](C)[C@](O)(C=O)[C@H]2O[C@@H]2O[C@@H](CO)[C@H](O)[C@@H](O)[C@@H]2NC)[C@@H](N/C(N)=N\[H])[C@@H]1O` [streptomycin], which “sensitivity at critical concentration” value (streptomycin, 5 μg/ml) is on record?
Answer: sensitive

Question: How did the “sensitivity at critical concentration” value (isoniazid, 0.2 μg/ml) turn out when `NNC(=O)c1ccncc1` [isoniazid] was run?
Answer: sensitive
